Test results reported in patent US20040266834A1, “Thiazolidinediones alone or in cabination with other therapeutic agents for cancer therapy” (priority 1999, published 2004).
In brackets after ≈: the same amount, converted by molar mass. Counter-ions that a name gives are not always drawn. Starred links: 1 amine or outer side, 2 acyl side, 3 side chain; linkers in the order of their positions; H or OH if unused. Positions of bridges follow the written chain, without caps; N, C: chain ends. Non-standard residues stand in square brackets, D forms with d. Residues, ends and D or L forms follow the SMILES beside them. Chains are numbered I, II in the order given. Actinocin(9to1) = Cc1c2oc3c(C)ccc(C(=O)[*:1])c3nc-2c(C(=O)[*:2])c(N)c1=O; NMeV = CN[C@H](C(=O)O)C(C)C; Sar = CNCC(=O)O

Columns and labels:
[1] = system: Saos-2 cells; assay: Lactate dehydrogenase (LDH) activity in media, Saos-2; assay type: cell-based, human
Method: Saos-2 cells were purchased from ATCC (Rockville, Md.) and cultured in 10% fetal bovine serum, penicillin/streptomycin, and DMEM media. Cells exposed to a single treatment of troglitazone, 5-fluorouracil, and/or cis-platinum for 3 days. At the end of 3 days media was tested for lactate dehydrogenase (LDH) activity as a measure of cell toxicity and DNA content was determined as a measure of cell proliferation. The phrase “cell proliferation” is used herein interchangeably with “cell growth.”
Media from treated cells was assayed for LDH activity with a colorimetric dye-oxidation method which has been previously described (11). Briefly, the assay mix including lactate, NAD, INT dye and diaphorase in PBS was added to media from the cells and incubated 30 minutes. Red color development is indicative of INT […] to formazan product, giving an indication of LDH activity when measured at 490 nm.

[2] = system: HCT 15 cells; settings: cited from earlier work
[3] = system: HCT 116 cells; settings: cited from earlier work
[4] = cited from earlier work
[5] = system: Saos-2 cells; assay: DNA content (Hoechst H 33258) as measure of cell proliferation, Saos-2; assay type: cell-based, human
Method: Cells exposed to a single treatment of troglitazone, 5-fluorouracil, and/or cis-platinum for 3 days. […] The phrase “cell proliferation” is used herein interchangeably with “cell growth.” Concentration of cellular DNA was determined using Hoechst dye H 33258 and a Hoefer DyNA Quant fluorometer according to manufacturer's instructions. Results are expressed as μg DNA/well. All experiments were done in triplicate.

[6] = system: Saos-2 cells; assay: [3H]thymidine incorporation, Saos-2; assay type: cell-based, human
Method: Saos-2 cells (10,000/well) were seeded into wells of 12-well plates and grown for 4 days until near confluent. […]. [Methyl-^3H]thymidine (1 μCi) and thymidine (3 μM) were then added to each well, and the incubation was continued for another 4 h. Cells were rinsed with ice-cold PBS twice and were treated with ice-cold 10% TCA. The cells were then rinsed twice with PBS and solubilized in 400 μl of solution composed of 0.03% SDS in 0.3 N NaOH. The extracts were neutralized with HCl, and radioactivity incorporated into the cells was quantified by liquid scintillation spectrometry.

[7] = system: p21 mRNA; assay: Ribonuclease protection assay, cell cycle regulator mRNA; assay type: cell-based, human; settings: single treatment 1 μM, 24 hr, normalized to GAPDH
Method: To determine whether troglitazone effected any of the cell cycle regulator genes, ribonuclease protection assay (RPA) was performed measuring mRNAs encoding p130, Rb, p107, p53, p57, p27, p21, p19, p18, p16, p14/15 and the housekeeping gene products L32 and GAPDH. […] Cells were lysed and total RNA was isolated. […] Ribonuclease protection assay was performed using kit according to manufacturer instructions (PharMingen, San Diego, Calif.). Conditions that were optimized included using 20 μg of total RNA from Hs578T cells and a 1:200 dilution of RNAse A/T (200 units/ml RNase A and 10,000 units/ml RNase T). […] Results are reported as the ratio of […] signal. All experiments were done in triplicate from different RNA preparations.

[8] = system: PPARγ in UMCR 3 cells; assay: PPRE/luciferase reporter, UMCR 3; assay type: cell-based, human; settings: 10 μM, 24-hour treatment
Method: A tandem PPRE luciferase expression plasmid was constructed using three copies of a consensus PPRE 5′ to the luciferase gene. Cells were transfected using the calcium phosphate method of transfection. 10 μg of PPRE/luciferase reporter plasmid was transfected into URMC 3, 6, and 7 cells. A CMV-CAT reporter plasmid was cotransfected (0.5 μg) with PPRE/luciferase as an internal control for transfection efficiency. CAT activity was measured by ELISA as described by Boehringer-Mannheim. […] Cells lysates were prepared and luciferase activity was determined using an AutoLumat luminometer.

[9] = system: CaOV3 cells; assay: DNA content, ovarian tumor cells CaOV3; assay type: cell-based, human; settings: 3 days; for inhibition at 10 µM: Homo sapiens, Caov-3, 72 h, read-out: inhibition of cell proliferation
Method: (§1) […]. At the end of 3 days DNA content was determined as a measure of cell proliferation.
(§2) Concentration of cellular DNA was determined using Hoechst dye H 33258 and a Hoefer DyNA Quant fluorometer according to manufacturer's instructions. Results are expressed as μg DNA/well. All experiments were done in triplicate.

[10] = system: 222 cells; assay: DNA content, ovarian tumor cells 222; assay type: cell-based; settings: Homo sapiens, 72 h, 3 days, read-out: inhibition of growth
Method: as §1, §2

[11] = system: PA-1 cells; assay: DNA content, ovarian tumor cells PA-1; assay type: cell-based; settings: Homo sapiens, 72 h, 3 days, read-out: inhibition of cell proliferation
Method: as §1, §2

[12] = system: three renal cell carcinoma cell lines; assay: DNA content, three renal cell carcinoma cell lines taken together; assay type: cell-based, human; settings: 10 μM; UMCR 3, 6 and 7
Method: Human renal tumor cells (URMC 3, 6, 7) were cultured in 5% fetal bovine serum, penicillin/streptomycin, and alpha-MEM media. […] At the end of 3 days DNA content was determined as a measure of cell proliferation.
as §2

[13] = system: human ovarian 2774 cells; assay: DNA content, ovarian 2774 cells, combinatorial therapy; assay type: cell-based; settings: taxol 1 ng/ml, cis-platin 100 ng/ml, troglitazone 5 or 10 μM, alone or combined
Method: as §1, §2

[14] = humans; cited from earlier work
[15] = system: multiple myeloma; settings: oral administration; cited from earlier work

## vitamin E
[1]; 100 μM
  cell killing (microscopic examination and LDH levels in the media): cells are being killed
[2]
  IC50: 750 µM
[3]
  IC50: 3000 µM

## COc1cccc2c1C(=O)c1c(O)c3c(c(O)c1C2=O)C[C@@](O)(C(=O)CO)C[C@@H]3O[C@H]1C[C@H](N)[C@H](O)[C@H](C)O1 [Doxorubicin, 5,12-Naphthacenedione, (8s-cis)-10-[(3-amino-2,3,6-trideoxy-a-L-lyxo-hexopyranosyl)oxy]-7,8,9,10-tetrahydro-6,8,11-trihydroxy-8-(hydroxyacetyl)-1-methoxy-hydrochloride]
[4]; in vivo
  oral absorption: absorbed poorly
  secreted into the bile: Forty to 50

## Cc1c(C)c2c(c(C)c1O)CCC(C)(COc1ccc(CC3SC(=O)NC3=O)cc1)O2 (racemic) [troglitazone, ±5-[[4-[(3,4-dihydro-6-hydroxy-2,5,7,8-tetramethyl-2H-1-benzopyran-2-yl)methoxy]phenyl]methyl]-2,4-thiazolidinedione]
[5]; Homo sapiens, 72 h, Saos-2 cells, 3 days after a single treatment, read-out: IC50 (DNA content per well)
  IC50: 1 to 10 µg/mL (≈ 2.26 to 22.6 µM)
[5]; compared with the other thiazolidinediones
  ability to inhibit cell proliferation in combinatorial therapy (5-FU, doxorubicin): superior to pioglitazone and BRL49653
[1]; any concentration used, 3 days of treatment
  LDH levels in the media as compared to controls: not altered
[1]; up to 30 μg/ml, 3 days
  lethality to Saos-2 cells (LDH activity): not lethal
[6]; 10 μg/ml, 24 h exposure
  decrease in 3H-thymidine incorporation: ~45%
[6]; Homo sapiens, SAOS-2, read-out: inhibition of 3H-uridine uptake, 5 μg/ml, 18 hours
  inhibition at 5 µg/mL: 16%
[6]; Homo sapiens, SAOS-2, read-out: inhibition of 3H-uridine uptake, 10 μg/ml, 18 hours
  inhibition at 10 µg/mL: 43%
[7]
  increase in p21 mRNA levels: 2.6 fold
[8]
  stimulation of PPRE/luciferase transcription: 3 fold
[9]; 10 μM
  inhibition of cell proliferation: no inhibitory activity
[10]
  inhibition at 10 µM: 50%
[11]
  inhibition at 10 µM: 60 to 70%

## CC[C@]1(O)C[C@H]2CN(CCc3c([nH]c4ccccc34)[C@@](C(=O)OC)(c3cc4c(cc3OC)N(C=O)[C@H]3[C@@](O)(C(=O)OC)[C@H](OC(C)=O)[C@]5(CC)C=CCN6CC[C@]43[C@@H]65)C2)C1 [vincristine]
[4]; in vivo
  oral absorption: Unpredictable absorption

## CC[C@]1(O)C[C@@H]2CN(CCc3c([nH]c4ccccc34)[C@@](C(=O)OC)(c3cc4c(cc3OC)N(C)[C@H]3[C@@](O)(C(=O)OC)[C@H](OC(C)=O)[C@]5(CC)C=CCN6CC[C@]43[C@@H]65)C2)C1 [vinblastine]
[4]; in vivo
  oral absorption: Unpredictable absorption

## CC1=C(/C=C/C(C)=C\C=C\C(C)=C\C(=O)O)C(C)(C)CCC1 [9-cis-retinoic acid]
[12]
  growth inhibitory activity (FIGS. 13-15): little on no growth inhibitory activity

## COc1cccc2c1C(=O)c1c(O)c3c(c(O)c1C2=O)C[C@@](O)(C(C)=O)C[C@@H]3O[C@H]1C[C@H](N)[C@H](O)[C@H](C)O1 [Daunorubicin, 5,12-Naphthacenedione, (8S-cis)-8-acetyl-10-[(3-amino-2,3,6-trideoxy-a-L-lyxo-hexanopyranosyl)oxy]-7,8,9,10-tetrahydro-6,8,11-trihydroxy-10-methoxy-, hydrochloride]
[4]; in vivo
  oral absorption: poor

## Cc1c(C)c2c(c(C)c1OC(=O)CCC(=O)O)CC[C@@](C)(CCC[C@H](C)CCC[C@H](C)CCCC(C)C)O2 [Vitamin E succinate]
[5]; single treatment
  inhibition of cell proliferation, compounds compared (FIG. 7): somewhat less effective than troglitazone

## O.O=P1(N(CCCl)CCCl)NCCCO1 (stereo not shown) [Cyclophosphamide, 2H-1,3,2-Oxazaphosphorin-2-amine, N,N-bis(2-chloroethyl)tetrahydro-, 2-oxide, monohydrate]
[4]; in vivo
  stability in the gastrointestinal tract: stable

## O=NN(CCCl)C(=O)NC1CCCCC1 [Lomustine, 1-(2-chloro-ethyl)-3-cyclohexyl-1 nitrosourea]
[4]; in vivo
  serum half-life of the metabolites: 16 to 48 h
[4]; oral, 30 mg/m^2 to 100 mg/m^2, radioactive drug
  radioactivity excreted as degradation products within 24 hours: about half

## CN(CCOc1ccc(CC2SC(=O)NC2=O)cc1)c1ccccn1 (stereo not shown) [rosiglitazone]
[9]
  inhibition at 10 µM: 60%
[10]
  inhibition at 10 µM: 4%
[11]
  inhibition at 10 µM: 60 to 70%

## CC(=O)O[C@H]1C(=O)[C@@]2(C)[C@H]([C@H](OC(=O)c3ccccc3)[C@]3(O)C[C@H](OC(=O)[C@H](O)[C@@H](NC(=O)c4ccccc4)c4ccccc4)C(C)=C1C3(C)C)[C@]1(OC(C)=O)CO[C@@H]1C[C@@H]2O [taxol]
[13]; Homo sapiens, read-out: inhibition of cell proliferation
  inhibition at 0.001 µg/mL: 28%

## CC1=C(/C=C/C(C)=C/C=C/C(C)=C/C(=O)O)C(C)(C)CCC1 [all trans retinoic acids]
[12]
  growth inhibitory activity (FIGS. 13-15): little on no growth inhibitory activity

## O=C(O)CCC(=O)O [succinic acid]
[5]; 100 μM
  effect upon cell proliferation: no effect

## N.N.[Cl][Pt][Cl] [cis-platin]
[13]
  inhibition of cell proliferation: 55%
[4]; in vivo
  oral absorption: not absorbed orally

## CO[C@@]12[C@H](COC(N)=O)C3=C(C(=O)C(C)=C(N)C3=O)N1C[C@@H]1N[C@@H]12 [mitomycin]
[14]
  dose recovered/excreted in the urine: Approximately 10%

## O=C(O)CCCc1ccc(N(CCCl)CCCl)cc1 [Chlorambucil, 4-[bis(2-chlorethyl)amino] benzenebutanoic acid]
[4]; in vivo
  oral absorption: rapidly and completely absorbed

## Cc1c2oc3c(C)ccc(C(=O)N[C@@H]4C(=O)N[C@H](C(C)C)C(=O)N5CCC[C@H]5C(=O)N(C)CC(=O)N(C)[C@@H](C(C)C)C(=O)O[C@@H]4C)c3nc-2c(C(=O)N[C@@H]2C(=O)N[C@H](C(C)C)C(=O)N3CCC[C@H]3C(=O)N(C)CC(=O)N(C)[C@@H](C(C)C)C(=O)O[C@@H]2C)c(N)c1=O [Actinomycin D] (I: T[dV]P[Sar][NMeV] / II: T[dV]P[Sar][NMeV]; ester I:1-I:C, II:1-II:C; linker I:N-II:N via Actinocin(9to1))
[4]; in vivo
  passage of the blood-brain barrier: does not pass

## N[C@@H](Cc1ccc(N(CCCl)CCCl)cc1)C(=O)O [Melphalan, 4-[bis(2-chloroethyl)amino]-L-phenylalanine]
[15]
  patients showing a favorable response: one third to one half

## CCc1ccc(CCOc2ccc(CC3SC(=O)NC3=O)cc2)nc1 (stereo not shown) [pioglitazone]
[9]
  inhibition at 10 µM: 60%
[10]
  inhibition at 10 µM: 36%
[11]
  inhibition at 10 µM: 60 to 70%
